# Patent US20140113898A1, “BISARYLSULFONE AND DIALKYLARYLSULFONE COMPOUNDS AS CALCIUM CHANNEL BLOCKERS” (Zalicus Pharmaceuticals Ltd., priority 2010, published 2014)
# pIC50: −log10 of the molar value.
# Biological target: T1, CaV2.2 (Homo sapiens, UniProt Q00975)
# T1 construct: expressed in transfected cells; host or cells: unnamed doxycycline-inducible cell line
# Assay: High-throughput CaV2.2/Kir2.3 FLIPR fluorescent assay
# Assay type: cell-based
# Settings: Table 5; Fluo-4 FLIPR; closed or inactivated state not stated; read-out: FLIPR data CaV2.2
# Protocol: Cells were plated in 384-well, clear-bottom, black-walled, poly-D-lysine coated plates (Becton Dickinson, Franklin Lake, N.J.) 2 days prior to use in the FLIPR assay. 100 μL of cells (1.4×10^6 cell/mL) containing doxycyline (Sigma-Aldrich, 1.5 μg/mL; to induce channel expression) were added to each well using a Multidrop (Thermo Scientific, Waltham, Mass.) and were maintained in 5% CO2 incubator at 37° C. On the morning of the assay, cells were transferred to a 5% CO2 incubator at 29° C.
# Cells were washed with a wash buffer containing (in mM): 118 NaCl, 18.4 HEPES, 11.7 D-glucose, 2 CaCl2, 0.5 MgSO4, 4.7 KCl, 1.2 KH2PO4, pH adjusted to 7.2 with NaOH. 4.4 μM of the fluorescent indicator dye, Fluo-4 (Invitrogen), prepared in pluronic acid (Sigma-Aldrich), was loaded into the wells and incubated for 45 minutes at 29° C. in 5% CO2. Cells were then rinsed with either a 2 mM KCl closed-state buffer (in mM: 138.5 NaCl, 10 HEPES, 10 D-glucose, 1 CaCl2, and 2 KCl, with the pH adjusted to 7.4 with NaOH) when performing the closed-state assay or 12.5 mM KCl inactivated-state buffer (in mM: 128 NaCl, 10 HEPES, 10 D-glucose, 1 CaCl2, and 12.5 mM KCl, with the pH adjusted to 7.4 with NaOH) when performing the inactivated-state assay.
# Calcium entry was evoked with an addition of 130 mM KCl stimulation buffer (in mM: 10.5 NaCl, 10 HEPES, 10 D-glucose, 1 CaCl2, and 130 KCl, with the pH adjusted to 7.4 with NaOH) for both the closed-state or inactivated-state assay. A change in the Fluo-4 fluorescence signal was assessed using FLIPR^TETRA™ instrument (Molecular Devices, Sunnyvale, Calif.) for 3 minutes following the elevation of extracellular KCl using an illumination wavelength of 470-495 nm with emissions recorded at 515-575 nm.
# Concentration-dependent response curves were obtained by comparing the fluorescence signal in the presence of compound and fitted with a logistic function (1) to obtain the concentration that inhibited 50% (IC50) of the RLU signal using OriginPro v.7.5 software (OriginLab, Northampton, Mass.).
# To assess the quality of the FLIPR assays the Z-factor (2) was used to quantify the suitability of the assay conditions using the following equation: […]
# Data are expressed as mean and standard deviation (SD).
# T1 sequence (Q00975 whole entry): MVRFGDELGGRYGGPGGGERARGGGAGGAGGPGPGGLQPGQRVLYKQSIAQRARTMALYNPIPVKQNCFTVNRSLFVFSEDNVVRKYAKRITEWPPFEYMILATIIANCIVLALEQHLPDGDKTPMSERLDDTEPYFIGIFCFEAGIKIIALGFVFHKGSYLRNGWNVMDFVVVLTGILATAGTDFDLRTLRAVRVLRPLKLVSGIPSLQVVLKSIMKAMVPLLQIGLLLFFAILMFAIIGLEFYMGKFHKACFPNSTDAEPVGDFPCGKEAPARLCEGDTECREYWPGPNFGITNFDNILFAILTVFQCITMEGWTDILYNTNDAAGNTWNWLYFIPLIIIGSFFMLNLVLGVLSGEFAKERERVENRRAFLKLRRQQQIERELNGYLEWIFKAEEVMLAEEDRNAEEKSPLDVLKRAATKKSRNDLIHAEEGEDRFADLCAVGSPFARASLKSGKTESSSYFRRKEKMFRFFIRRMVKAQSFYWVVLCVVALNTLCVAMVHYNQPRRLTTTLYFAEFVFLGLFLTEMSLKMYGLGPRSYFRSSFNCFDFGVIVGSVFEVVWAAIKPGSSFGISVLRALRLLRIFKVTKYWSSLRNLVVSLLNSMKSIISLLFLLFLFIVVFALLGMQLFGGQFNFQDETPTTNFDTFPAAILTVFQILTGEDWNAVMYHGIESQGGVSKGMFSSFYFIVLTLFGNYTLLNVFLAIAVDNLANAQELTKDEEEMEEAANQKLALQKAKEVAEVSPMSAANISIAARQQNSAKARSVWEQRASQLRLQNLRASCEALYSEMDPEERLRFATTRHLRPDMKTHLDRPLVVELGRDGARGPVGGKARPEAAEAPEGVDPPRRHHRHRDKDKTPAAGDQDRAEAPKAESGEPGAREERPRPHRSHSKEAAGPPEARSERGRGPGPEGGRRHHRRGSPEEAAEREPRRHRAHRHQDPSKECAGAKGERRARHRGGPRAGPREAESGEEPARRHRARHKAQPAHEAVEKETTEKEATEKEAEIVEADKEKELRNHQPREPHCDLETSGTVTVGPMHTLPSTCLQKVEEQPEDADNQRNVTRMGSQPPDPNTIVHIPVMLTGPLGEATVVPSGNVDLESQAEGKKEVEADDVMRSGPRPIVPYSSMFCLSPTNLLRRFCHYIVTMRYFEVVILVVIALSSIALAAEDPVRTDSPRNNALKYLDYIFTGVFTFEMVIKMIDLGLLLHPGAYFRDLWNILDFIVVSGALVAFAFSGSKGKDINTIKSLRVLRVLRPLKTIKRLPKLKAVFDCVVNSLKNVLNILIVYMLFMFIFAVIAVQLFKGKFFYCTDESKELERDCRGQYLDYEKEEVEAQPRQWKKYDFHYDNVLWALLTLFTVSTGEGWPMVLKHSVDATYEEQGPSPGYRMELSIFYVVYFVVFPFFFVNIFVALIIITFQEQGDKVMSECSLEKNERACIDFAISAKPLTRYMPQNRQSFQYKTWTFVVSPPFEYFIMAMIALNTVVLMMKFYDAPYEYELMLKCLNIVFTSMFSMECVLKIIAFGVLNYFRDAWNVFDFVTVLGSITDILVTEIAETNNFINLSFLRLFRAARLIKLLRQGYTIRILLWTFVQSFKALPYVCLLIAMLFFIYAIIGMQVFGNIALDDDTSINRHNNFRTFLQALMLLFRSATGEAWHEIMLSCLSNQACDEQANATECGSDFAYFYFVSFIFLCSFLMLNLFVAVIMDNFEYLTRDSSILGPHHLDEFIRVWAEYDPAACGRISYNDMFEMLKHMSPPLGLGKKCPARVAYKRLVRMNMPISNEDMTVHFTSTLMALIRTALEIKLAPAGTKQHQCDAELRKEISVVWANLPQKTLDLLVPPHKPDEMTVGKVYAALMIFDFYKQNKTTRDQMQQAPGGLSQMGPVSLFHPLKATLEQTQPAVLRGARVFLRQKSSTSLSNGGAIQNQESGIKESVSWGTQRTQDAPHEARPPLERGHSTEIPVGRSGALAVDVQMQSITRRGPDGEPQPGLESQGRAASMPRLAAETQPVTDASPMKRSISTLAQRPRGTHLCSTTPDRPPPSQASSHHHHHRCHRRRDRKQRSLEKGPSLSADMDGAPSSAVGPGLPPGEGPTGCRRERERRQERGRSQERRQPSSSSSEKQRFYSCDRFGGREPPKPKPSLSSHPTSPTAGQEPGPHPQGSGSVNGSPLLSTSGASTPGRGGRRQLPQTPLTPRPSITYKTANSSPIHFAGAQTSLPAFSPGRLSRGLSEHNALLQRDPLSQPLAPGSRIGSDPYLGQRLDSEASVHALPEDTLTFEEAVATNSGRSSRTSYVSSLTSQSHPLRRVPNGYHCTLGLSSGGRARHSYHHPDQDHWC
# T1 sequence (P54284 whole entry partner): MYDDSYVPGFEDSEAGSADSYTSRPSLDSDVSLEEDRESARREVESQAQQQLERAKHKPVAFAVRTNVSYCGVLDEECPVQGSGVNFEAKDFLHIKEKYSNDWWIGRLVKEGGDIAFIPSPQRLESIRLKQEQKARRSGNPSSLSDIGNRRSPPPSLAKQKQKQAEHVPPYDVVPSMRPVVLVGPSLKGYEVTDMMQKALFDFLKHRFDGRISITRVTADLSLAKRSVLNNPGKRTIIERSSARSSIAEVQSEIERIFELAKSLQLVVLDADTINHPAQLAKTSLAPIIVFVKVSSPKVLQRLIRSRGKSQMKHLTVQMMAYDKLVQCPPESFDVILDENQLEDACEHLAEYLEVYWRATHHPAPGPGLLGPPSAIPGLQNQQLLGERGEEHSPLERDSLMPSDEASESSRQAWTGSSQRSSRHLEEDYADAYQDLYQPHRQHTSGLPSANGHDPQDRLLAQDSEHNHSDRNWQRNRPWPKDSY
# T1 sequence (P54289 25-946 partner limits assumed): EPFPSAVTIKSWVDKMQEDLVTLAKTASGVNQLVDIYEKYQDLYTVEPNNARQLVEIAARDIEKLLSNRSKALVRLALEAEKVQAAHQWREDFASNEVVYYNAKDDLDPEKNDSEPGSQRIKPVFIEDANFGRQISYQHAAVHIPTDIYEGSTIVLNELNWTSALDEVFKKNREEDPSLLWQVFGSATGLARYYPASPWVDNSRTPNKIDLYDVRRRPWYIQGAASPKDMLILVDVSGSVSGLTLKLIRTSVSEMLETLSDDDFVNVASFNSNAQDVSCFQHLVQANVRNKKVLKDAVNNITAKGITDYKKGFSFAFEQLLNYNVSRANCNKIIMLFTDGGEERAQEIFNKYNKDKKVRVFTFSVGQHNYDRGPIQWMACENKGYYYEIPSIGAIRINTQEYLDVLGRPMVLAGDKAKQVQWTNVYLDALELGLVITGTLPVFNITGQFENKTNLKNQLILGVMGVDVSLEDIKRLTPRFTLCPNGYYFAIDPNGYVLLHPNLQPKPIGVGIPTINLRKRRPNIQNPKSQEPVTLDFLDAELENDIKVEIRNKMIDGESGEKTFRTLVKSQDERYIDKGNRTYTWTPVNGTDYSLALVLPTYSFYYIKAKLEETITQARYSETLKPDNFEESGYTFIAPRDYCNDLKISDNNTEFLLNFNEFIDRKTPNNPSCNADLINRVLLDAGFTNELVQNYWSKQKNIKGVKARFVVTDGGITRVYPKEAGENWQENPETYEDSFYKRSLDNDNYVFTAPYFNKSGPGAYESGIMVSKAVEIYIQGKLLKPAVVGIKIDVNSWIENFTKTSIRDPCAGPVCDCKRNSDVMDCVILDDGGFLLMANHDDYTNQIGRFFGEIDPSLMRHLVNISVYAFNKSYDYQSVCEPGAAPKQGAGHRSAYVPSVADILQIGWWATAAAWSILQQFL
# T1 sequence (P54289 947-1103 partner limits assumed): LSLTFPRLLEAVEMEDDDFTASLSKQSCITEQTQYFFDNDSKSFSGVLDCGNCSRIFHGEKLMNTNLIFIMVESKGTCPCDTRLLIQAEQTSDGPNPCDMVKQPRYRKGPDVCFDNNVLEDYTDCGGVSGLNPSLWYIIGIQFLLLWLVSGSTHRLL
row,Structure (SMILES),pIC50
1,"CC(C)(CNC(=O)c1cnccc1C(F)(F)F)S(=O)(=O)c1cccc(C(F)(F)F)c1 [Compound 174, N-(2-methyl-2-((3-(trifluoromethyl)phenyl)sulfonyl)propyl)-4-(trifluoromethyl)nicotinamide]",5.36
2,"CC(C)(CNC(=O)c1ccnc(F)c1)S(=O)(=O)c1cccc(C(F)(F)F)c1 [Compound 177, 2-fluoro-N-(2-methyl-2-((3-(trifluoromethyl)phenyl)sulfonyl)propyl)isonicotinamide]",5.00
3,"CC(C)(CNC(=O)c1ccnc(C(F)(F)F)c1)S(=O)(=O)c1cccc(C(F)(F)F)c1 [Compound 179, N-(2-methyl-2-((3-(trifluoromethyl)phenyl)sulfonyl)propyl)-2-(trifluoromethyl)isonicotinamide]",5.91
4,"CC(C)(CNC(=O)c1ccnc(Cl)c1)S(=O)(=O)c1cccc(C(F)(F)F)c1 [Compound 180, 2-chloro-N-(2-methyl-2-((3-(trifluoromethyl)phenyl)sulfonyl)propyl)isonicotinamide]",5.40
5,"CC(C)(CN1Cc2nc(C(F)(F)F)ccc2C1=O)S(=O)(=O)c1cccc(C(F)(F)F)c1 [Compound 182, 6-(2-methyl-2-((3-(trifluoromethyl)phenyl)sulfonyl)propyl)-2-(trifluoromethyl)-6,7-dihydro-5H-pyrrolo[3,4-b]pyridin-5-one]",5.00
6,"CC(C)(CCNC(=O)c1ccc(C(F)(F)F)nc1S(C)(=O)=O)S(=O)(=O)c1cccc(C(F)(F)F)c1 [Compound 183, N-(3-methyl-3-((3-(trifluoromethyl)phenyl)sulfonyl)butyl)-2-(methylsulfonyl)-6-(trifluoromethyl)nicotinamide]",5.81
7,"CC(C)(CCNC(=O)c1ccc(S(C)(=O)=O)cc1Cl)S(=O)(=O)c1cccc(C(F)(F)F)c1 [Compound 189, 2-chloro-N-(3-methyl-3-((3-(trifluoromethyl)phenyl)sulfonyl)butyl)-4-(methylsulfonyl)benzamide]",5.87
8,"CC(C)(CCNC(=O)c1ccc(S(C)(=O)=O)cc1)S(=O)(=O)c1cccc(C(F)(F)F)c1 [Compound 191, N-(3-methyl-3-((3-(trifluoromethyl)phenyl)sulfonyl)butyl)-4-(methylsulfonyl)benzamide]",5.85
9,"CC(C)(CCNC(=O)c1ccccc1S(C)(=O)=O)S(=O)(=O)c1cccc(C(F)(F)F)c1 [Compound 192, N-(3-methyl-3-((3-(trifluoromethyl)phenyl)sulfonyl)butyl)-2-(methylsulfonyl)benzamide]",5.52
10,"CC(C)(CCNC(=O)Cc1cccc(S(C)(=O)=O)c1)S(=O)(=O)c1cccc(C(F)(F)F)c1 [Compound 193, N-(3-methyl-3-((3-(trifluoromethyl)phenyl)sulfonyl)butyl)-2-(3-(methylsulfonyl)phenyl)acetamide]",5.77
11,"CC(C)(CCNC(=O)c1cc(F)ccc1S(C)(=O)=O)S(=O)(=O)c1cccc(C(F)(F)F)c1 [Compound 194, 5-fluoro-N-(3-methyl-3-((3-(trifluoromethyl)phenyl)sulfonyl)butyl)-2-(methylsulfonyl)benzamide]",5.82
12,"CO[C@H]1CN[C@@H](C(=O)NCCC(C)(C)S(=O)(=O)c2cccc(C(F)(F)F)c2)C1 [Compound 199, (2R,4R)-4-methoxy-N-(3-methyl-3-((3-(trifluoromethyl)phenyl)sulfonyl)butyl)pyrrolidine-2-carboxamide]",5.48
13,CC(C)(CCNC(=O)[C@H](N)c1ccccc1)S(=O)(=O)c1cccc(C(F)(F)F)c1 [Compound 200],5.98
14,"CNC(C)(C)C(=O)NCCC(C)(C)S(=O)(=O)c1cccc(C(F)(F)F)c1 [Compound 204, 2-methyl-N-(3-methyl-3-((3-(trifluoromethyl)phenyl)sulfonyl)butyl)-2-(methylamino)propanamide]",4.99
15,"CC(C)(CCNC(=O)[C@@H](N)c1ccccc1)S(=O)(=O)c1cccc(C(F)(F)F)c1 [Compound 205, (S)-2-amino-N-(3-methyl-3-((3-(trifluoromethyl)phenyl)sulfonyl)butyl)-2-phenylacetamide]",5.83
16,"CC(C)(CCNC(=O)CC1CCNCC1)S(=O)(=O)c1cccc(C(F)(F)F)c1 [Compound 206, N-(3-methyl-3-((3-(trifluoromethyl)phenyl)sulfonyl)butyl)-2-(piperidin-4-yl)acetamide]",5.00
17,"Cc1c(C(=O)NCCC(C)(C)S(=O)(=O)c2cccc(C(F)(F)F)c2)sc2nc[nH]c(=O)c12 [Compound 210, 5-methyl-N-(3-methyl-3-((3-(trifluoromethyl)phenyl)sulfonyl)butyl)-4-oxo-3,4-dihydrothieno[2,3-d]pyrimidine-6-carboxamide]",5.48
18,"CC(C)S(=O)(=O)c1cccnc1C(=O)NCCC(C)(C)S(=O)(=O)c1cccc(C(F)(F)F)c1 [Compound 211, 3-(isopropylsulfonyl)-N-(3-methyl-3-((3-(trifluoromethyl)phenyl)sulfonyl)butyl)picolinamide]",5.96
19,"CC(C)(CCNC(=O)c1ccc(C(F)(F)F)cc1S(C)(=O)=O)S(=O)(=O)c1cc(F)cc(C(F)(F)F)c1 [Compound 213, N-(3-((3-fluoro-5-(trifluoromethyl)phenyl)sulfonyl)-3-methylbutyl)-2-(methylsulfonyl)-4-(trifluoromethyl)benzamide]",5.95
20,"CC(C)(CCNC(=O)c1cn2cc(C(F)(F)F)ccc2n1)S(=O)(=O)c1cc(F)cc(C(F)(F)F)c1 [Compound 214, N-(3-((3-fluoro-5-(trifluoromethyl)phenyl)sulfonyl)-3-methylbutyl)-6-(trifluoromethyl)imidazo[1,2-a]pyridine-2-carboxamide]",5.88

# Now from value to compound:
row,pIC50,Structure (SMILES)
1,5.51,"CC(C)(CCNC(=O)[C@H]1CCCCN1)S(=O)(=O)c1cccc(C(F)(F)F)c1 [Compound 195, (R)-N-(3-methyl-3-((3-(trifluoromethyl)phenyl)sulfonyl)butyl)piperidine-2-carboxamide]"
2,5.45,"CC(C)(CCNC(=O)[C@@H]1CCCCN1)S(=O)(=O)c1cccc(C(F)(F)F)c1 [Compound 196, (S)-N-(3-methyl-3-((3-(trifluoromethyl)phenyl)sulfonyl)butyl)piperidine-2-carboxamide]"
3,5.00,"CC(C)(CCNC(=O)C1(N)CCOCC1)S(=O)(=O)c1cccc(C(F)(F)F)c1 [Compound 197, 4-amino-N-(3-methyl-3-((3-(trifluoromethyl)phenyl)sulfonyl)butyl)tetrahydro-2H-pyran-4-carboxamide]"
4,5.04,"CC(C)(CCNC(=O)C1(N)CCS(=O)(=O)CC1)S(=O)(=O)c1cccc(C(F)(F)F)c1 [Compound 198, 4-amino-N-(3-methyl-3-((3-(trifluoromethyl)phenyl)sulfonyl)butyl)tetrahydro-2H-thiopyran-4-carboxamide 1,1-dioxide]"
5,5.00,"CC(C)(N)C(=O)NCCC(C)(C)S(=O)(=O)c1cccc(C(F)(F)F)c1 [Compound 201, 2-amino-2-methyl-N-(3-methyl-3-((3-(trifluoromethyl)phenyl)sulfonyl)butyl)propanamide]"
6,5.00,"CC(C)(CCNC(=O)C1(N)CC1)S(=O)(=O)c1cccc(C(F)(F)F)c1 [Compound 202, 1-amino-N-(3-methyl-3-((3-(trifluoromethyl)phenyl)sulfonyl)butyl)cyclopropanecarboxamide]"
7,5.23,"CC(C)(CCNC(=O)C1(N)CCC1)S(=O)(=O)c1cccc(C(F)(F)F)c1 [Compound 203, 1-amino-N-(3-methyl-3-((3-(trifluoromethyl)phenyl)sulfonyl)butyl)cyclobutanecarboxamide]"
8,5.86,"CC(C)(CCNC(=O)C1(N)CCCCC1)S(=O)(=O)c1cccc(C(F)(F)F)c1 [Compound 207, 1-amino-N-(3-methyl-3-((3-(trifluoromethyl)phenyl)sulfonyl)butyl)cyclohexanecarboxamide]"
9,5.76,"CC(C)(CCNC(=O)[C@H]1CCCC[C@@H]1N)S(=O)(=O)c1cccc(C(F)(F)F)c1 [Compound 208, (1S,2S)-2-amino-N-(3-methyl-3-((3-(trifluoromethyl)phenyl)sulfonyl)butyl)cyclohexanecarboxamide]"
10,5.77,"CC(C)(CCNC(=O)[C@H]1CCCC[C@H]1N)S(=O)(=O)c1cccc(C(F)(F)F)c1 [Compound 209, (1S,2R)-2-amino-N-(3-methyl-3-((3-(trifluoromethyl)phenyl)sulfonyl)butyl)cyclohexanecarboxamide]"
